This experiment concerns the target T1, human HAQ STING isoform (hSTING HAQ) (Homo sapiens, UniProt Q86WV6, G230A/H232R/R293Q/R71H).
T1 construct: THP1 cells express the naturally occurring human HAQ STING isoform (hSTING HAQ); host or cells: THP1
Put plainly: IFN-β mRNA level in THP1 cells (qPCR, STING agonist cellular activity). Conditions: compound at 3.6 μM, 2 hrs, IFNβ expression normalized against GAPDH by the 2^-ΔΔCT method, DMSO = 1.0. In kind it is cell-based. How it is done:
Cellular activity of STING agonists was determined by mRNA levels of IFN-β in THP1 (Otwo Biotech HTX1621) cell line. THP1 cells express the naturally occurring human HAQ STING isoform (hSTING HAQ), which responses to the activation of STING agonists.
THP1 cells were seeded into Falcon 12-well cell Culture Plate (Corning #353043) at 9×10^5 cells per well, in 1 ml complete culture medium (RPMI-1640, GIBCO #C1187500BT) containing 10% heat inactivated FBS (GIBCO #10099141C), 1% Pen-Strep (HyClone SV30010) and incubated at 37° ΔC, 5% CO2 overnight. On day 2, compound (final concentration at 3.6 μM) or DMSO (0.1%, Sigma Aldrich #8418) was added to THP1 cells and further incubated for 2 hrs min at 37° ΔC, 5% CO2. Cells were then collected for RNA extraction.
Total RNA was extracted with TRIzol reagent (Invitrogen #15596026) and […] was used to synthesize first-strand cDNA with Maxima First Strand cDNA Synthesis Kit (TAKARA #RR036A). Quantitative PCR was performed with Maxima SYBR Green qPCR Master Mix (ABI #4367659, USA). The primer sequences used were as follows: GAPDH (5′-[…]-3′, 5′-[…]-3′). INFP3 (5′-[…]-3′,5′-[…]-3′) Real-time PCR was performed on QuantStudio™ 5 Real-Time PCR System (Thermo Fisher). Relative expression levels of IFNβ gene were normalized against the level of GAPDH expression by the 2^−ΔΔCT method. Each PCR reaction was performed in triplicates.
(In qPCR the cycle at which signal appears reflects the starting amount.)
T1 sequence (Q86WV6 whole entry R71H/G230A/H232R/R293Q, canonical isoform): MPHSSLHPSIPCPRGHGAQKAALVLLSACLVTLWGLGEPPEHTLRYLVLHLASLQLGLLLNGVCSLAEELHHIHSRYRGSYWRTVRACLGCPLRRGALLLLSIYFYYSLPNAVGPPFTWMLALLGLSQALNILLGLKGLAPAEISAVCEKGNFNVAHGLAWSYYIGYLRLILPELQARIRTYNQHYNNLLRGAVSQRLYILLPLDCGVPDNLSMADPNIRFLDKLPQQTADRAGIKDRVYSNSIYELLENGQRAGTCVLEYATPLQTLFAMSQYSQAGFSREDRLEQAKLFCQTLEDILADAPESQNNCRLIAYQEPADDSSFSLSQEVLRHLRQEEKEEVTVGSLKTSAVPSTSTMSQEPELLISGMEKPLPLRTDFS
As to `COc1cc(CN(Cc2cn3c4c(c(F)c(F)cc4c2=O)OCC3C)[C@H]2CCCN(c3cccnc3)C2)ccn1` (stereo partly drawn) [Compound 22, 9,10-difluoro-6-((((2-methoxypyridin-4-yl)methyl)((S)-1-(pyridin-3-yl)piperidin-3-yl)amino)methyl)-3-methyl-2H-[1,4]oxazino[2,3,4-ij]quinolin-7(3H)-one], the “Relative mRNA INFβ/GAPDH THP 1” value amounted to 6463.9.

Turning to `COc1cc(CN(Cc2cn3c4c(c(N5CC6(CCNCC6)C5)c(F)cc4c2=O)OCC3C)[C@H]2CCCN(c3ccc(N)nc3)C2)ccn1` (stereo partly drawn) [Compound 24, 6-((((S)-1-(6-aminopyridin-3-yl)piperidin-3-yl)((2-methoxypyridin-4-yl)methyl)amino)methyl)-9-fluoro-3-methyl-10-(2,7-diazaspiro[3.5]nonan-2-yl)-2H-[1,4]oxazino[2,3,4-ij]quinolin-7(3H)-one], the “Relative mRNA INFβ/GAPDH THP 1” value was determined as 437.3. Then `COc1cc(CN(Cc2cn3c4c(c(N5CCN(Cc6oc(=O)oc6C)CC5)c(F)cc4c2=O)OCC3C)[C@H]2CCCN(c3ccc(N)nc3)C2)ccn1` (stereo partly drawn) [Compound 25, 6-((((S)-1-(6-aminopyridin-3-yl)piperidin-3-yl)((2-methoxypyridin-4-yl)methyl)amino)methyl)-9-fluoro-3-methyl-10-(4-((5-methyl-2-oxo-1,3-dioxol-4-yl)methyl)piperazin-1-yl)-2H-[1,4]oxazino[2,3,4-ij]quinolin-7(3H)-one], with 604.8; and `COc1cc(CN(Cc2cn3c4c(c(N5CCN(CNC(N)=O)CC5)c(F)cc4c2=O)OCC3C)[C@H]2CCCN(c3ccc(N)nc3)C2)ccn1` (stereo partly drawn) [Compound 26, 1-((4-(6-((((S)-1-(6-aminopyridin-3-yl)piperidin-3-yl)((2-methoxypyridin-4-yl)methyl)amino)methyl)-9-fluoro-3-methyl-7-oxo-3,7-dihydro-2H-[1,4]oxazino[2,3,4-ij]quinolin-10-yl)piperazin-1-yl)methyl)urea], with 3.5; and `COc1cc(CN(Cc2cn3c4c(c(N5CCOCC5)c(F)cc4c2=O)OCC3C)[C@H]2CCCN(c3ccc(N)nc3)C2)ccn1` (stereo partly drawn) [Compound 27, 6-((((S)-1-(6-aminopyridin-3-yl)piperidin-3-yl)((2-methoxypyridin-4-yl)methyl)amino)methyl)-9-fluoro-3-methyl-10-morpholino-2H-[1,4]oxazino[2,3,4-ij]quinolin-7(3H)-one], with 372.4. As for `COc1cc(CN(Cc2cn3c4c(c(N5CCCCC5)c(F)cc4c2=O)OCC3C)[C@H]2CCCN(c3ccc(N)nc3)C2)ccn1` (stereo partly drawn) [Compound 28, 6-((((S)-1-(6-aminopyridin-3-yl)piperidin-3-yl)((2-methoxypyridin-4-yl)methyl)amino)methyl)-9-fluoro-3-methyl-10-(piperidin-1-yl)-2H-[1,4]oxazino[2,3,4-ij]quinolin-7(3H)-one], the figure is 1530.0; as for `COc1cc(CN(Cc2cn3c4c(c(N5CC6(COC6)C5)c(F)cc4c2=O)OCC3C)[C@H]2CCCN(c3ccc(N)nc3)C2)ccn1` (stereo partly drawn) [Compound 30, 6-((((S)-1-(6-aminopyridin-3-yl)piperidin-3-yl)((2-methoxypyridin-4-yl)methyl)amino)methyl)-9-fluoro-3-methyl-10-(2-oxa-6-azaspiro[3.3]heptan-6-yl)-2H-[1,4]oxazino[2,3,4-ij]quinolin-7(3H)-one], 986.1; as for `COc1cc(CN(Cc2cn3c4c(c(N5CCC(O)CC5)c(F)cc4c2=O)OCC3C)[C@H]2CCCN(c3ccc(N)nc3)C2)ccn1` (stereo partly drawn) [Compound 31, 6-((((S)-1-(6-aminopyridin-3-yl)piperidin-3-yl)((2-methoxypyridin-4-yl)methyl)amino)methyl)-9-fluoro-10-(4-hydroxypiperidin-1-yl)-3-methyl-2H-[1,4]oxazino[2,3,4-ij]quinolin-7(3H)-one], 1162.4.

The record behind these values is patent US20250171461A1, “STIMULATOR OF INTERFERON GENES (STING) MODULATORS, AND COMPOSITIONS AND METHODS THEREOF” (Geode Therapeutics Inc., priority 2022, published 2025).
